Structures are written as SMILES. Where only a bound is given, the exact number is not on record here.

One may read the IC50 as the midpoint of a concentration-inhibition curve.

The target of the experiment is T1, human calcium-sensing receptor (CaSR) (Homo sapiens, UniProt P41180).
T1 construct: expressed in transfected cells
T1 sequence (P41180 20-1078): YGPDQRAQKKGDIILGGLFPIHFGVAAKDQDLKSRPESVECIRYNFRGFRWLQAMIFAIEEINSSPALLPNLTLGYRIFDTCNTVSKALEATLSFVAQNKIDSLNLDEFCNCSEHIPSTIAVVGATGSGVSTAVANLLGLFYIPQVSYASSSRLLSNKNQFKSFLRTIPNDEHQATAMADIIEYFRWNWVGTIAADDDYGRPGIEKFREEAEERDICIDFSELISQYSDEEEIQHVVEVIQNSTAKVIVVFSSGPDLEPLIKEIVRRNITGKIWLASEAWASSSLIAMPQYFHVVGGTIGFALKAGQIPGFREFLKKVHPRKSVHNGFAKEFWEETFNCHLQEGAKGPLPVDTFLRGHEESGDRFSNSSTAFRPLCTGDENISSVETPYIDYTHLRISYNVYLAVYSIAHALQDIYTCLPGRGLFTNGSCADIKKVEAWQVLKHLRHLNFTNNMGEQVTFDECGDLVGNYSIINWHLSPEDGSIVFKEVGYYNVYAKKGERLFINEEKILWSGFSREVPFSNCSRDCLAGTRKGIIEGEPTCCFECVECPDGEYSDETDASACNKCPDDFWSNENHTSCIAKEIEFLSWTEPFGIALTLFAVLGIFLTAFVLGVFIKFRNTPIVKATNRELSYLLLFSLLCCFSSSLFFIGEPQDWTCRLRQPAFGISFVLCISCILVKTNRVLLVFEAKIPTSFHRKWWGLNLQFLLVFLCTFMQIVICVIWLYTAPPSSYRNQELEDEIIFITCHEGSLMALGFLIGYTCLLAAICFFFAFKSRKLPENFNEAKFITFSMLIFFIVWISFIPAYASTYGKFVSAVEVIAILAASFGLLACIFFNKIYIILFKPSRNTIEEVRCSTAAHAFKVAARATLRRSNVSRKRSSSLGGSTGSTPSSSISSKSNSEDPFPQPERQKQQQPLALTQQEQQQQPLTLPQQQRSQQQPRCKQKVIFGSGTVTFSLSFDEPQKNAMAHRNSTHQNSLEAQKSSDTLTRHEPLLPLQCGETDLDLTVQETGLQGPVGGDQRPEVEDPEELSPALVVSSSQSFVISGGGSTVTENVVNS
The experiment is described as follows: intracellular Ca assay, CaSR antagonist activity in HEK293/hCaSR cells. The experiment is classed as cell-based. To be noted: Fura2-AM, inhibition of response to calcium chloride ligand solution, read-out: IC50 values according to the intracellular Ca assay (CaSR antagonist activity). The gist of the method:
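HEK293/hCaSR cells were loaded with Fura2-AM and pre-incubated with compound for 160 s at 37° C in HEPES buffer (pH 7.4, 0.8 mM CaCl2), then challenged with calcium ligand solution. Read-out was the peak 340/380 nm fluorescence ratio; inhibition is relative to no-compound (0%) and no-calcium-ligand (100%) controls.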
With `CN(C[C@H](O)CNC(C)(C)CC1Cc2ccccc2C1)S(=O)(=O)c1cccc(-c2ccc(C(=O)O)cc2)c1` [Exp. 3-50, (R)-3′-(N-(3-(1-(2,3-dihydro-1H-inden-2-yl)-2-methylpropan-2-ylamino)-2-hydroxypropyl)-N-methylsulfamoyl)biphenyl-4-carboxylic acid], the IC50 is ≤ 0.3 µM.

For the compound `CCc1cc(-c2ccc(CCC(=O)O)cc2)ccc1S(=O)(=O)N(C)C[C@H](O)CNC(C)(C)CCCc1ccccc1` [Exp. 3-116, (R)-3-(3′-ethyl-4′-(N-(2-hydroxy-3-(2-methyl-5-phenylpentan-2-ylamino)propyl)-N-methylsulfamoyl)biphenyl-4-yl)propionic acid], the IC50 is ≤ 0.3 µM.

For the compound `CN(C[C@H](O)CNC(C)(C)CC1Cc2ccccc2C1)S(=O)(=O)c1cc(-c2cccc(CC(=O)O)c2)cc(C(F)(F)F)c1` [Exp. 3-154, (R)-2-(3′-(N-(3-(1-(2,3-dihydro-1H-inden-2-yl)-2-methylpropan-2-ylamino)-2-hydroxypropyl)-N-methylsulfamoyl)-5′-(trifluoromethyl)biphenyl-3-yl)acetic acid], the IC50 is ≤ 0.3 µM.

On to `CCc1cc(-c2ccc(CC(=O)O)cc2)ccc1S(=O)(=O)N(C)C[C@H](O)CNC(C)(C)CC1Cc2ccccc2C1` [Exp. 3-147, (R)-2-(4′-(N-(3-(1-(2,3-dihydro-1H-inden-2-yl)-2-methylpropan-2-ylamino)-2-hydroxypropyl)-N-methylsulfamoyl)-3′-ethylbiphenyl-4-yl)acetic acid], for which the IC50 is ≤ 0.3 µM.

For `CN(C[C@H](O)CNC(C)(C)CCCc1ccsc1)S(=O)(=O)c1cc(-c2cccc(CCC(=O)O)c2)cc(C(F)(F)F)c1` [Exp. 9-73, (R)-3-(3′-(N-(2-hydroxy-3-(2-methyl-5-(thiophen-3-yl)pentan-2-ylamino)propyl)-N-methylsulfamoyl)-5′-(trifluoromethyl)biphenyl-3-yl)propionic acid], the IC50 was ≤ 0.3 µM.

For the compound `CN(C[C@H](O)CNC(C)(C)Cc1ccc2ccccc2c1)S(=O)(=O)c1cccc(-c2cccc(C=CC(=O)O)c2)c1` [Exp. 3-16, (R)-3-(3′-(N-(2-hydroxy-3-(2-methyl-1-(naphthalen-2-yl)propan-2-ylamino)propyl)-N-methylsulfamoyl)biphenyl-3-yl)acrylic acid], the IC50 lay within 1 to 3 µM.

In the case of `CCc1cc(-c2ccc(CCC(=O)O)cc2)ccc1S(=O)(=O)N(C)C[C@H](O)CNC(C)(C)CCCc1ccccc1F` [Exp. 9-89, (R)-3-(3′-ethyl-4′-(N-(3-(5-(2-fluorophenyl)-2-methylpentan-2-ylamino)-2-hydroxypropyl)-N-methylsulfamoyl)biphenyl-4-yl)propionic acid], the half-maximal inhibitory concentration (IC50) is ≤ 0.3 µM.

For `CN(C[C@H](O)CNC(C)(C)CCCc1ccccc1)S(=O)(=O)c1cc(F)cc(CCC(=O)O)c1Cl` [Exp. 9-173, (R)-3-(2-chloro-5-fluoro-3-(N-(2-hydroxy-3-(2-methyl-5-phenylpentan-2-ylamino)propyl)-N-methylsulfamoyl)phenyl)propionic acid], the IC50 was ≤ 0.3 µM.

For `Cc1cc(-c2cccc(S(=O)(=O)N(C)C[C@H](O)CNC(C)(C)Cc3ccc4ccccc4c3)c2)ccc1C(=O)O` [Exp. 3-8, (R)-3′-(N-(2-hydroxy-3-(2-methyl-1-(naphthalen-2-yl)propan-2-ylamino)propyl)-N-methylsulfamoyl)-3-methylbiphenyl-4-carboxylic acid], the IC50 was ≤ 0.3 µM.

`Cc1cc(-c2ccccc2CS(=O)(=O)N(C)C[C@H](O)CNC(C)(C)Cc2ccc3ccccc3c2)ccc1C(=O)O` [Exp. 3-81, (R)-2′-((N-(2-hydroxy-3-(2-methyl-1-(naphthalen-2-yl)propan-2-ylamino)propyl)-N-methylsulfamoyl)methyl)-3-methylbiphenyl-4-carboxylic acid]: the IC50 fell in the range of 0.3 to 1 µM.

`Cc1cc(S(=O)(=O)N(C)C[C@H](O)CNC(C)(C)CC2Cc3ccccc3C2)ccc1-c1cccc(CCC(=O)O)c1` [Exp. 3-178, (R)-3-(4′-(N-(3-(1-(2,3-dihydro-1H-inden-2-yl)-2-methylpropan-2-ylamino)-2-hydroxypropyl)-N-methylsulfamoyl) 2′-methylbiphenyl-3-yl)propionic acid]: the IC50 was ≤ 0.3 µM.

With `CN(C[C@H](O)CNC(C)(C)CC1Cc2ccccc2C1)S(=O)(=O)c1cccc(-c2ccc(C(=O)O)c(F)c2)c1` [Exp. 3-53, (R)-3′-(N-(3-(1-(2,3-dihydro-1H-inden-2-yl)-2-methylpropan-2-ylamino)-2-hydroxypropyl)-N-methylsulfamoyl)-3-fluorobiphenyl-4-carboxylic acid], the IC50 is ≤ 0.3 µM.

As for `CN(C[C@H](O)CNC(C)(C)CC1Cc2ccccc2C1)S(=O)(=O)c1cccc(-c2cc(F)cc(C(=O)O)c2)c1` [Exp. 3-60, (R)-3′-(N-(3-(1-(2,3-dihydro-1H-inden-2-yl)-2-methylpropan-2-ylamino)-2-hydroxypropyl)-N-methylsulfamoyl)-5-fluorobiphenyl-3-carboxylic acid], the IC50 is ≤ 0.3 µM.

As for `Cc1cc(C(=O)O)ccc1-c1cccc(S(=O)(=O)N(C)C[C@H](O)CNC(C)(C)CC2Cc3ccccc3C2)c1` [Exp. 3-220, (R)-3′-(N-(3-(1-(2,3-dihydro-1H-inden-2-yl)-2-methylpropan-2-ylamino)-2-hydroxypropyl)-N-methylsulfamoyl)-2-methylbiphenyl-4-carboxylic acid], the IC50 was ≤ 0.3 µM.

Turning to `CN(C[C@H](O)CNC(C)(C)CC1Cc2ccccc2C1)S(=O)(=O)c1c(Cl)cc(-c2ccc(CC(=O)O)cc2)cc1Cl` [Exp. 3-140, (R)-2-(3′,5′-dichloro-4′-(N-(3-(1-(2,3-dihydro-1H-inden-2-yl)-2-methylpropan-2-ylamino)-2-hydroxypropyl)-N-methylsulfamoyl)biphenyl-4-yl)acetic acid], the IC50 is ≤ 0.3 µM.

Consider `CN(C[C@H](O)CNC(C)(C)CC1Cc2ccccc2C1)S(=O)(=O)c1cccc(-c2ccc(C(=O)O)s2)c1` [Exp. 3-130, (R)-5-(3-(N-(3-(1-(2,3-dihydro-1H-inden-2-yl)-2-methylpropan-2-ylamino)-2-hydroxypropyl)-N-methylsulfamoyl)phenyl)thiophen-2-carboxylic acid], for which the IC50 is ≤ 0.3 µM.

Regarding `CN(C[C@H](O)CNC(C)(C)CC1Cc2ccccc2C1)S(=O)(=O)c1cccc(-c2c(Cl)cc(C(=O)O)cc2Cl)c1` [Exp. 3-228, (R)-2,6-dichloro-3′-(N-(3-(1-(2,3-dihydro-1H-inden-2-yl)-2-methylpropan-2-ylamino)-2-hydroxypropyl)-N-methylsulfamoyl)biphenyl-4-carboxylic acid], the IC50 was ≤ 0.3 µM.

In the case of `CN(C[C@H](O)CNC(C)(C)Cc1ccc2ccccc2c1)S(=O)(=O)c1cccc(-c2ccc(C(=O)O)cc2)c1` [Exp. 3-6, (R)-3′-(N-(2-hydroxy-3-(2-methyl-1-(naphthalen-2-yl)propan-2-ylamino)propyl)-N-methylsulfamoyl)biphenyl-4-carboxylic acid], the IC50 is 0.3 to 1 µM.

Regarding `CN(C[C@H](O)CNC(C)(C)CC1Cc2ccccc2C1)S(=O)(=O)c1cc(-c2ccc(F)c(C(=O)O)c2)cc(C(F)(F)F)c1` [Exp. 3-193, (R)-3′-(N-(3-(1-(2,3-dihydro-1H-inden-2-yl)-2-methylpropan-2-ylamino)-2-hydroxypropyl)-N-methylsulfamoyl)-4-fluoro-5′-(trifluoromethyl)biphenyl-3-carboxylic acid], the IC50 was ≤ 0.3 µM.

On to `CN(C[C@H](O)CNC(C)(C)CC1Cc2ccccc2C1)S(=O)(=O)c1ccc(-c2cccc(C(=O)O)c2)cc1C(F)(F)F` [Exp. 3-124, (R)-4′-(N-(3-(1-(2,3-dihydro-1H-inden-2-yl)-2-methylpropan-2-ylamino)-2-hydroxypropyl)-N-methylsulfamoyl)-3′-(trifluoromethyl)biphenyl-3-carboxylic acid], for which the IC50 was ≤ 0.3 µM.

Turning to `CCc1cc(-c2cc(CCC(=O)O)ccc2F)ccc1S(=O)(=O)N(C)C[C@H](O)CNC(C)(C)CC1Cc2ccccc2C1` [Exp. 5-21, (R)-3-(4′-(N-(3-(1-(2,3-dihydro-1H-inden-2-yl)-2-methylpropan-2-ylamino)-2-hydroxypropyl)-N-methylsulfamoyl)-3′-ethyl-6-fluorobiphenyl-3-yl)propionic acid], the IC50 was ≤ 0.3 µM.

For the origin of these results see patent publication US8039514B2, “Sulfonamide compounds and use thereof” (Asahi Kasei Pharma Corporation, priority 2008, dated 2011).
